PMC9797722 (Frontiers in Veterinary Science, 2022)
Read-outs that look alike come from different tables or passages of the source.

Columns and labels:
[1] = humans, cited from earlier work
[2] = in vivo
[3] = Canine, cited from earlier work
[4] = tested on: gastric pH; settings: horses, cited from earlier work
[5] = Plasma pharmacokinetics of esomeprazole and esomeprazole sulfone in goats after IV and SC administration (HPLC, non-compartmental analysis); settings: for C0: C0, goats; for MRT inf: MRTinf; for k el: λz; for Vd/F: Vz/F
[6] = set-up: method as in PMID 34631865; settings: goats, intravenously or subcutaneously administered, all animals; cited from earlier work
[7] = tested on: pH of the third compartment; set-up: method as in PMID 20384953; settings: alpacas, administered IV or SC; cited from earlier work
[8] = both, pygmy and pygmy-cross, plasma, iv, 1 mg/kg
[9] = both, pygmy and pygmy-cross, plasma, iv, 1 mg/kg, goats, 1 mg/kg IV single dose, geomean, n = 5
[10] = both, pygmy and pygmy-cross, plasma, iv, 1 mg/kg, goats, 1 mg/kg IV single dose, median, n = 5
[11] = both, pygmy and pygmy-cross, plasma, sc, 2 mg/kg
[12] = both, pygmy and pygmy-cross, plasma, sc, 2 mg/kg, goats, 2 mg/kg SC (SQ) single dose, geomean, n = 5
[13] = both, pygmy and pygmy-cross, plasma, sc, 2 mg/kg, goats, 2 mg/kg SC (SQ) single dose, median, n = 5
[14] = goats, 1 mg/kg IV single dose, plasma, geomean, n = 5
[15] = goats, 1 mg/kg IV single dose, plasma, median, n = 5
[16] = goats, 2 mg/kg SC (SQ) single dose, plasma, geomean, n = 5
[17] = goats, 2 mg/kg SC (SQ) single dose, plasma, median, n = 5

COc1ccc2[nH]c(S(=O)(=O)Cc3ncc(C)c(OC)c3C)nc2c1 [Esomeprazole Sulfone, esomeprazole sulfone]
activity of the metabolite within the body [1]: not active
time detectable in plasma [2]: < 4 h
detection of sulfone metabolite in plasma ([2]; sc): no detectable sulfone metabolite

COc1ccc2nc([S@@+]([O-])Cc3ncc(C)c(OC)c3C)[nH]c2c1 [Esomeprazole, esomeprazole]
AUCinf ([3]; 1 mg/kg IV): 3820 ng·h/mL
AUClast ([3]; 1 mg/kg IV): 3820 ng·h/mL
Cl ([3]; 1 mg/kg IV): 5 mL/min/kg
T1/2 (λz) ([3]; 1 mg/kg IV): 43.8 min
Vss ([3]; 1 mg/kg IV): 0.27 L/kg
AUCinf ([3]; 1 mg/kg SQ): 4070 ng·h/mL
AUClast ([3]; 1 mg/kg SQ): 4070 ng·h/mL
C0/Cmax ([3]; 1 mg/kg SQ): 2620 ng/mL
F (bioavailability) ([3]; 1 mg/kg SQ): 106%
T1/2 (λz) ([3]; 1 mg/kg SQ): 54 min
tolerability of maintenance therapy ([1]; daily for up to 6 months): generally well-tolerated
gastric pH raised to ([4]; administered intravenously): ≥ 4
F (bioavailability) ([5]; Goat, 2 mg/kg SC vs 1 mg/kg IV, AUCSC/AUCIV x DoseIV/DoseSC): 116%
AUC(0-inf) [5, 8]: 440 ng·h/mL
AUC(0-t) [5, 8]: 440 ng·h/mL
C0 ([5]; both, pygmy and pygmy-cross, plasma, iv, 1 mg/kg, 1 mg/kg IV single dose, geomean, n = 5): 2320 ng/mL
C0 ([5]; both, pygmy and pygmy-cross, plasma, iv, 1 mg/kg, 1 mg/kg IV single dose, median, n = 5): 2880 ng/mL
Cmax ([5]; both, pygmy and pygmy-cross, plasma, iv, 1 mg/kg, C0/Cmax, Goat, 1 mg/kg IV (Table 3 comparison)): 2320 ng/mL
clearance ([5]; both, pygmy and pygmy-cross, plasma, iv, 1 mg/kg, Cl (plasma clearance), goats, 1 mg/kg IV single dose, geomean, n = 5): 24.9 mL/min/kg
clearance ([5]; both, pygmy and pygmy-cross, plasma, iv, 1 mg/kg, Cl (plasma clearance), goats, 1 mg/kg IV single dose, median, n = 5): 21.9 mL/min/kg
clearance ([5]; both, pygmy and pygmy-cross, plasma, iv, 1 mg/kg, Cl, Goat, 1 mg/kg IV (Table 3 comparison)): 25 mL/min/kg
MRT inf [5, 9]: 9.19 min
MRT inf [5, 10]: 8.41 min
Vd ([5]; both, pygmy and pygmy-cross, plasma, iv, 1 mg/kg, Vss, Goat, 1 mg/kg IV (Table 3 comparison)): 0.23 L/kg
Vd ([5]; both, pygmy and pygmy-cross, plasma, iv, 1 mg/kg, Vz (volume of distribution), goats, 1 mg/kg IV single dose, geomean, n = 5): 0.23 L/kg
Vd ([5]; both, pygmy and pygmy-cross, plasma, iv, 1 mg/kg, Vz (volume of distribution), goats, 1 mg/kg IV single dose, median, n = 5): 0.19 L/kg
clearance ([5]; both, pygmy and pygmy-cross, plasma, iv, 1 mg/kg, clearance, goats, 1 mg/kg IV, not normalised to body weight): 1050 mL/min
k el [5, 9]: 0.00183 s⁻¹
k el [5, 10]: 0.00183 s⁻¹
AUC(0-inf) [5, 11]: 1030 ng·h/mL
AUC(0-t) [5, 11]: 1020 ng·h/mL
Cmax ([5]; both, pygmy and pygmy-cross, plasma, sc, 2 mg/kg, C0/Cmax, Goat, 2 mg/kg SQ (Table 3 comparison)): 1040 ng/mL
Cmax ([5]; both, pygmy and pygmy-cross, plasma, sc, 2 mg/kg, Cmax, goats, 2 mg/kg SC (SQ) single dose, geomean, n = 5): 1040 ng/mL
Cmax ([5]; both, pygmy and pygmy-cross, plasma, sc, 2 mg/kg, Cmax, goats, 2 mg/kg SC (SQ) single dose, median, n = 5): 1060 ng/mL
bioavailability ([5]; both, pygmy and pygmy-cross, plasma, sc, 2 mg/kg, F (bioavailability), Goat, 2 mg/kg SC vs 1 mg/kg IV, AUCSC/AUCIV x DoseIV/DoseSC): > 100%
MRT inf [5, 12]: 51.7 min
MRT inf [5, 13]: 52.1 min
half-life ([5]; both, pygmy and pygmy-cross, plasma, sc, 2 mg/kg, T1/2 (λz) elimination half-life, goats, 2 mg/kg SC (SQ) single dose, geomean, n = 5): 29 min
half-life ([5]; both, pygmy and pygmy-cross, plasma, sc, 2 mg/kg, T1/2 (λz) elimination half-life, goats, 2 mg/kg SC (SQ) single dose, median, n = 5): 26.8 min
half-life ([5]; both, pygmy and pygmy-cross, plasma, sc, 2 mg/kg, T1/2 (λz), Goat, 2 mg/kg SQ): 29.4 min
Tmax ([5]; both, pygmy and pygmy-cross, plasma, sc, 2 mg/kg, Tmax, goats, 2 mg/kg SC (SQ) single dose, geomean, n = 5): 22 min
Tmax ([5]; both, pygmy and pygmy-cross, plasma, sc, 2 mg/kg, Tmax, goats, 2 mg/kg SC (SQ) single dose, median, n = 5): 20 min
Vd/F [5, 12]: 0.9 L/kg
Vd/F [5, 13]: 0.78 L/kg
k el [5, 12]: 0.0004 s⁻¹
k el [5, 13]: 0.000433 s⁻¹
AUCinf [5, 14]: 442 ng·h/mL
AUClast [5, 14]: 439 ng·h/mL
AUMCinf [5, 14]: 244 min²·µg/mL
AUCinf [5, 15]: 397 ng·h/mL
AUClast [5, 15]: 394 ng·h/mL
AUMCinf [5, 15]: 222 min²·µg/mL
AUCinf [5, 16]: 1030 ng·h/mL
AUClast [5, 16]: 1020 ng·h/mL
AUMCinf [5, 16]: 3200 min²·µg/mL
Tmax ([5]; goats, 2 mg/kg SC (SQ) single dose, plasma, geomean, n = 5, 2 mg/kg): 21.69 min
AUCinf [5, 17]: 979 ng·h/mL
AUClast [5, 17]: 959 ng·h/mL
AUMCinf [5, 17]: 3780 min²·µg/mL
plasma concentrations detected over time ([5]; goats, IV (1 mg/kg) and SC (2 mg/kg), any animal): not detected after 4 h

COc1ccc2[n-]c([S+]([O-])Cc3ncc(C)c(OC)c3C)nc2c1.COc1ccc2[n-]c([S+]([O-])Cc3ncc(C)c(OC)c3C)nc2c1.[Mg+2] (stereo not shown) [esomeprazole magnesium]
gastric pH maintained ([4]; orally 60 or 80 mg, for up to 6 h post administration): ≥ 5
adverse reactions ([4]; orally 60 or 80 mg): No adverse reactions were found

COc1ccnc(C[S+]([O-])c2nc3ccc(OC(F)F)cc3[nH]2)c1OC (stereo not shown) [pantoprazole]
plasma concentration detected over time [6]: undetectable after 4 h
effect on pH of the third compartment [7]: significantly increased the pH of the third compartment
